Assays:
[1] = test system: Na+ channel site 2 binding site; experiment: [3H]-BTX assay, rat forebrain membranes; settings: ± S.E.M., n in brackets
Procedure: In order to determine if the hermitamides bind to the sodium channel, the natural products, their enantiomers, and the racemic mixture were tested for their ability to displace [^3H]-batrachatoxin. Batrachatoxin is a lipid-soluble neurotoxin that binds to site 2 of the sodium channel. This site is known to overlap with the local anesthetic binding […]. Ligands known to bind to […] of the sodium channel include anesthetics, anticonvulsants and antiarrthymics. As a control, phenyloin, a clinically-used sodium channel blocker that is known to displace [^3H]BTX was also included.
The assays were run at 10 μM and recorded as percent displacement of BTX.
Briefly, rat forebrain membranes (10 mg tissue/well) were incubated with [^3H]-BTX (30-60 Ci/mmol). […] The reaction was terminated by rapid vacuum filtration of the reaction contents onto glass fiber filters. Radioactivity trapped onto the filters was determined and compared with control values to ascertain any interactions of the test compound with the Na^+ channel site 2 binding site. Aconitine (1 μM) was used as a positive control (Sigma Aldrich, Inc., St. Louis, Mo.).

[2] = target: T1, human Nav1.2 (Homo sapiens, UniProt Q99250); experiment: Sodium channel electrophysiology of hermitamides (patch clamp); assay type: cell-based; settings: HEK human Nav1.2
T1 construct: host or cells: HEK
Procedure: To test whether these compounds were functionally active as sodium channel blockers, the effects of the hermitamides were tested on human embryonic kidney cells (HEK) cells stably expressing human Nav1.2 using the […].
Human embryonic kidney cells (HEK) cells stably expressing human Nav1.2 were a kind gift from Dr. H. A. Hartmann (University of Baltimore, Md., USA) and were grown in DMEM/F12 media (Invitrogen, Corp, CA, USA) supplemented with 10% fetal bovine serum, penicillin (100 U/ml), streptomycin (100 μg/ml) and G418 (500 μg/ml; Sigma, Mo., USA). Cells were grown in a humidified atmosphere of 5% CO2 and 95% air at 37° C.
Sodium currents were recorded using the whole-cell configuration of the patch clamp recording technique with an Axopatch 200 amplifier (Axon Instruments, Foster City, Calif.). All voltage protocols were applied using pCLAMP 9 software (Axon, USA) and a Digidata 1322A (Axon, USA). Currents were amplified and low pass filtered (2 kHz) and sampled at 33 kHz. Borosilicate glass pipettes were pulled using a Brown-Flaming puller (model P87, Sutter Instruments Co, Novato, Calif.) and heat polished to produce electrode resistances of […] when filled with the following electrode solution (in mM); CsCl 130, MgCl2 1, MgATP 5, BAPTA 10, HEPES 5 (pH adjusted to 7.4 with CsOH). Cells were plated on glass coverslips and superfused with solution containing the following composition; (in mM) NaCl 130, KCl 4, CaCl2 1, MgCl2 5, HEPES 5, and glucose 5 (pH adjusted to 7.4 with NaOH).
(S)-Hermitamide B was prepared as 100 mM stock solutions in DMSO and diluted to the desired concentration in perfusion solution. The maximum DMSO concentration used was 0.1% and had no effect on current amplitude. All experiments were performed at room temperature (20-22° C.). After establishing whole-cell, a minimum series resistance compensation of 75% was applied. Sodium currents were elicited by a depolarizing step from a holding potential of −100 mV to +10 mV for a duration of 25 ms at 15 s intervals. (S)-Hermitamide B was applied after a 3 min control period and continued until a steady state current amplitude was observed. All data represent percentage mean block±standard error of the mean (S.E.M.).

[3] = test system: CWR22rv-1 cells; experiment: CWR22rv-1 prostate cancer cell death (propidium iodide, FACS); assay type: cell-based, human; settings: 25 μM, after 24 h
Procedure: CWR22Rv1 cells (ATCC, Manassas, Va.) were seeded in 6 well tissue culture plate at density of 300,000 cells/well and maintained in RPMI 1640 (Mediatech, Herndon, Va.) containing 10% fetal bovine serum, 2.5 mM L-glutamine, and penicillin-streptomycin (100 IU/ml and 100 μg/ml, respectively) at 37° C. with 5% CO2. Cells were then switched to serum free RPMI media overnight prior to drug treatment. Compounds were dissolved in 100% dimethylsulfoxide (DMSO) and diluted to the desired concentrations in serum free RPMI. Cells were treated with indicated drug concentrations (in triplicate per treatment point) for 24, 48, 72 hour. After treatment, cells were harvested by trypsinization and fixed in 70% ethanol. The fixed cells were then stained with propidium iodide (50 μg/ml) after treatment with RNase (5 μg/ml). The stained cells were analyzed for DNA content using FACSsort (Becton Dickinson). Cell cycle fractions were quantified with Cell Quest (Becton Dickinson) or ModFit LT (Verity Software House).

[4] = test system: site 2 of the VGSC; experiment: [3H]-BTX-B displacement assay at site 2; assay type: binding, rat; settings: Screen at 40 μM, 2 replicates, referenced to Aconitine

T1 sequence (Q99250 whole entry): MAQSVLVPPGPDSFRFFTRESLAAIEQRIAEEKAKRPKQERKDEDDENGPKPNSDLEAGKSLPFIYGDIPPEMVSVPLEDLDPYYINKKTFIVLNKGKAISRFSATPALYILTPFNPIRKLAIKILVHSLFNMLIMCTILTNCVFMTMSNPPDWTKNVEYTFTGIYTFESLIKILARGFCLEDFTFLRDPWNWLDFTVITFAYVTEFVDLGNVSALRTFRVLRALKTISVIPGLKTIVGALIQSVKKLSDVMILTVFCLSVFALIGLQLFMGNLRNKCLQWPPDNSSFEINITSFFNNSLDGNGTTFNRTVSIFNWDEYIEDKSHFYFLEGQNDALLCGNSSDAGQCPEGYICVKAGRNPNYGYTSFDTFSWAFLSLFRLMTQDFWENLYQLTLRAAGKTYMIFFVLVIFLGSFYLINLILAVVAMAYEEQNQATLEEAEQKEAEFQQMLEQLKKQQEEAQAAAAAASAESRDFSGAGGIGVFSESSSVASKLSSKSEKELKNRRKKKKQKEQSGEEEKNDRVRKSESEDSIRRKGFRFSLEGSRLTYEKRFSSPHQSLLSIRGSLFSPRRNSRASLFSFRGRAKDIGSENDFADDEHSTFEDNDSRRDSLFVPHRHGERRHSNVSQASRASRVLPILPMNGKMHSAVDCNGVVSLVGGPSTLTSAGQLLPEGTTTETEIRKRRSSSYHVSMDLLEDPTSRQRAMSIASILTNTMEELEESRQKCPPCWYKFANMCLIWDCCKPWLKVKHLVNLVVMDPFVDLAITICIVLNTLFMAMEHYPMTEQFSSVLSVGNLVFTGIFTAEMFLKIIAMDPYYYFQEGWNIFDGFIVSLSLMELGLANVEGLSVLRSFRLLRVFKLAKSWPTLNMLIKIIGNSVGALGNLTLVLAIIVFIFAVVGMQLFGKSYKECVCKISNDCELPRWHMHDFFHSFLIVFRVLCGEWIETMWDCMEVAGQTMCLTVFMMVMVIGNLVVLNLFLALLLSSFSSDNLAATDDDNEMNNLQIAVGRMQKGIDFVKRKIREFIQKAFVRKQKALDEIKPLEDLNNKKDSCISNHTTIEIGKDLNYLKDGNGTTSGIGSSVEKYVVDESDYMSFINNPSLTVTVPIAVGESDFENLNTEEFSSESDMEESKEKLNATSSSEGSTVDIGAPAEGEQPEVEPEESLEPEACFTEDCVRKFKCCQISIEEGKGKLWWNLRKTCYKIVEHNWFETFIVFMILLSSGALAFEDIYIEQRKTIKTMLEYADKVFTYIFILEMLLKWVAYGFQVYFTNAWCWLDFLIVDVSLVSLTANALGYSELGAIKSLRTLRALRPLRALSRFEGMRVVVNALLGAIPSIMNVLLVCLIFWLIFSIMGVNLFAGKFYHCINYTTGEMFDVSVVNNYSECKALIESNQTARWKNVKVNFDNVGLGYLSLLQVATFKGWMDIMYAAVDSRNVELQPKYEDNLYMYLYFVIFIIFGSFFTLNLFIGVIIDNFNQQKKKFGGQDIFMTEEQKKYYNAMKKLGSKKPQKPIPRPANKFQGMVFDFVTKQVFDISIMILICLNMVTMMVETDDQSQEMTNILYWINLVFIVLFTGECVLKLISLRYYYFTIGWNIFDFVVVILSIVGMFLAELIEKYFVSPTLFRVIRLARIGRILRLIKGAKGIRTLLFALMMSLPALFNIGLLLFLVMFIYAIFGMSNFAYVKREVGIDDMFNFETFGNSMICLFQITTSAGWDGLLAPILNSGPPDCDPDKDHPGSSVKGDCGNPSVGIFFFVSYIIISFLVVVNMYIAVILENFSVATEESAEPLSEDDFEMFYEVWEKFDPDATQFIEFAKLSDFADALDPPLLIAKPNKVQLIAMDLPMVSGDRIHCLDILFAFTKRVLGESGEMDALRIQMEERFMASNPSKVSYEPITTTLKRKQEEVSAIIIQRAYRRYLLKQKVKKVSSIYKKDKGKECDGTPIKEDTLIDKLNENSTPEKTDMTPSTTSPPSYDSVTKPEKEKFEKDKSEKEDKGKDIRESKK

SMILES	% [3H]-BTX Displacement At 10 μM [1]	Patch-clamp percentage block, 1 μM [2]	Patch-clamp percentage block, 10 μM [2]	[3H]-BTX-B Binding Data, Displacement % [4] [%]	further results
CCCCCCC[C@H](C/C=C/CCC(=O)O)OC [(R)-lyngbic acid, (7R,4E)-Methoxytetradecenoic Acid]	11.91 ± 0.16 (2) %	52.5 ± 3.9 (4) %			Patch-clamp percentage block, 100 nM [2]: 11.9%
CCCCCCCC(C/C=C/CCC(=O)O)OC (racemic) [rac-lyngbic acid]	7.35 ± 2.88 (2) %				Patch-clamp percentage block, 100 μM ([2]; 100 μM): 55.6%
CCCCCCC[C@](O)(C(N)=O)c1cccc(Cl)c1 [(R)-(−)-2-(3-chloro-phenyl)-2-hydroxy-nonanoic acid amide]					cell death of CWR22rv-1 cells [3]: induces cell death
CCCCCCC[C@@H](C/C=C/CCC(=O)NCCc1ccccc1)OC (racemic) [rac-hermitamide A]	15.71 ± 0.14 (2) %	49.7 ± 3.8 (4) %	90.2 ± 2.5 (3) %		
CCCCCCC[C@@H](C/C=C/CCC(=O)NCCc1c[nH]c2ccccc12)OC (racemic) [rac-hermitamide B]	36.05 ± 0.77 (2) %	88.4 ± 2.9 (40%	100 (1) %		Patch-clamp percentage block, 100 nM [2]: 24.3%
O=C1NC(=O)C(CCCCCC2CC2)(c2cccc(Cl)c2)N1 (stereo not drawn) [Compound 20]				8	
C#C/C(=C\CCCCCC)c1cccc(Cl)c1 [Compound 13]				32	
CCCCCCC[C@H](C/C=C/CCC(=O)NCCc1c[nH]c2ccccc12)OC [(R)-hermitamide B, 2-(1H-indol-3-yl)-ethyl (7R,4E)-Methoxytetradecenamide]	20.31 ± 5.82 (2) %	93.6 (1) %			Patch-clamp percentage block, 100 nM [2]: 28.8%
O=C1NC(=O)C(CCCCCC2CO2)(c2cccc(Cl)c2)N1 (stereo not drawn) [Compound 18]				28	
CCCCCCC[C@@H](C/C=C/CCC(=O)O)OC [(S)-lyngbic acid, (7S,4E)-Methoxytetradecenoic Acid]	7.77 ± 2.20 (2) %		44.4 ± 0.3 (4) %		
C=CCCCCCC1(c2cccc(Cl)c2)NC(=O)NC1=O (stereo not drawn) [Compound 16]				79	
CCCCCCC[C@H](C/C=C/CCC(=O)NCCc1ccccc1)OC [(R)-hermitamide A, Phenethyl (7R,4E)-methoxytetradecenamide]	13.79 ± 1.28 (2) %	58.7 ± 1.3 (4) %			
C#CC(O)(CCCCCCC)c1cccc(Cl)c1 (stereo not drawn) [Compound 12]				78	
C=CCCCCCC1(c2cccc(Cl)c2)NC(=O)N(Cc2ccccc2)C1=O (stereo not drawn) [Compound 17]				23	
CCCCCCC[C@@H](C/C=C/CCC(=O)NCCc1ccccc1)OC [(S)-hermitamide A, Phenethyl (7S,4E)-methoxytetradecenamide]	15.89 ± 3.06 (2) %	~50%	94.4 ± 1.3 (4) %		
CCCCCCC[C@@H](C/C=C/CCC(=O)NCCc1c[nH]c2ccccc12)OC [(S)-hermitamide B, 2-(1H-indol-3-yl)-ethyl (7S,4E)-Methoxytetradecenamide]	29.02 ± 0.29 (2) %	80%	100 (3) %		Patch-clamp percentage block, 1 μM ([2]; listed as Hermitamide B): ~80%
